Laboratory results as given in US20160200716A1, “COBICISTAT DICHLOHYDRATE SALT” (ASSIA CHEMICAL INDUSTRIES LTD., priority 2012, published 2016).
Counter-ions that a name gives are not always drawn.

What was measured:
[1] = Measurements of bulk density of mono- and dihydrochloride salts of Cobicistat; format: physicochemical; conditions: for volume filled by the salt in a glass cylinder (bulk density): about 0.30 g freely poured into glass cylinder without compaction, FIG. 12
Excerpt: Measurements of Bulk Density of Mono-and Dihydrochloride Salts of Cobicistat:
Cobicistat monohydrochloride and dihydrochloride, prepared according to examples 7 and 5 respectively, (about 0.30 g) were freely poured into two glass cylinders without compaction. While 0.30 g of Cobicistat monohydrochloride filled a volume of almost 5m1, 0.30 g of Cobicistat dihydrochloride filled a volume of less than 2m1.

[2] = Powder flowability / handling properties of Cobicistat hydrochloride salts; format: physicochemical; conditions: particle-shaped morphology, FIG. 9

With `CC(C)c1nc(CN(C)C(=O)N[C@@H](CCN2CCOCC2)C(=O)N[C@H](CC[C@H](Cc2ccccc2)NC(=O)OCc2cncs2)Cc2ccccc2)cs1` [Cobicistat dihydrochloride] the “volume filled by the salt in a glass cylinder (bulk density)” value [1] was “less than 2 m1”, the “bulk density compared with the monohydrochloride salt” value ([1]; as demonstrated in FIG. 12) was “substantially higher” and the “flowability of the powder material” value [2] was “highly flowable”.

For `CC(C)c1nc(CN(C)C(=O)N[C@@H](CCN2CCOCC2)C(=O)N[C@H](CC[C@H](Cc2ccccc2)NC(=O)OCc2cncs2)Cc2ccccc2)cs1` [Cobicistat monohydrochloride, reference compound], the “volume filled by the salt in a glass cylinder (bulk density)” value [1] was roughly 5 m1.
